According to ChEMBL document CHEMBL3351367, “Base-dependent formation of cis and trans olefins and their application in the synthesis of 5-oxo-ETE receptor antagonists” (Bioorg Med Chem Lett, 2014):

Molecular target: Oxoeicosanoid receptor 1 (Homo sapiens, UniProt Q8TDS5)
Test: Antagonist activity at 5-oxo-ETE receptor in human neutrophils assessed as inhibition of 5-oxo-ETE-induced Ca2+ mobilization incubated for 2 mins prior to 5-oxo-ETE addition by indo-1 staining-based spectrofluorometry
Assay type: functional

Chain of Oxoeicosanoid receptor 1 (Q8TDS5 whole entry): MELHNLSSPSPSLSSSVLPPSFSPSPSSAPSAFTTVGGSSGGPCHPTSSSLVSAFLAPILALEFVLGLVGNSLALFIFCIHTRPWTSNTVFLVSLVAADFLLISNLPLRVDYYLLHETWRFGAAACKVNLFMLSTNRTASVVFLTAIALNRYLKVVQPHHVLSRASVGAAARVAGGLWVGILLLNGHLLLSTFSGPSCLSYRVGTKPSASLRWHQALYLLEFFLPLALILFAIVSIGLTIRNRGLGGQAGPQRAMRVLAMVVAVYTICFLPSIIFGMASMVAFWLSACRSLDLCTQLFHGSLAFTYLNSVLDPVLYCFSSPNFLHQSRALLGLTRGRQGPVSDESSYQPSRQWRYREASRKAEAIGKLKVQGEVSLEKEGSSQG

Row | IC50 | SMILES
1 | 18.5 µM | CCCC/C=C/c1cc2ccc(Cl)cc2n1C(=O)CC(C)CC(=O)O (configuration not stated)
2 | 0.46 µM | CCCC/C=C\c1cc2ccc(Cl)cc2n1C(=O)CC(C)CC(=O)O (configuration not stated)
